# How the values were obtained:
# hepatitis B virus [1] = assay: HBsAg in culture supernatant of HepAD38 cells, ELISA; format: cell-based; conditions: 10µM and 5µM, HepAD38, 24h, 48h, 96h, 144h, Figure 13
# Method: Two groups of controls were also set up, one with only solvents (DMF) and one with antibiotics (tetracycline). Three replicate wells were set up for all experiments. 500µL of culture supernatant was taken at 24h, 48h, 96h, and 144h after adding the test article for ELISA to detect HBsAg concentration (Figure 13).
# hepatitis B virus [2] = assay: Mouse venous hypertension model (genotype B), HBsAg in peripheral blood by ELISA; format: in vivo, Wild-type mice (C57/B6)
# Method: . On the 9th day after infection, about 100µl/mouse of blood was harvested from the tail to separate serum, and the concentration of HBsAg in peripheral blood was detected by ELISA. The OD value at 450nm was measured on a microplate reader.
# . On the 9th day after infection, about 100µl of blood was harvested from each animal, serum was separated, and the concentration of HBsAg in peripheral blood was measured by ELISA.
# 3TC/ETV-resistant HBV = assay: Mouse venous hypertension model, serum HBsAg by ELISA (Example 13, Figure 17); format: in vivo, male C57 mice; conditions: 150 mg/day (converted adult dose, 22.8 mg/kg/day in mice), oral gavage, five days
# Source text: The specific method was based on the instructions of the ELISA kit.
# HCT-116 cells = assay: Cytotoxicity test, MTT assay; format: cell-based
# Method: (§1) […]. Various cells in the logarithmic growth phase were seeded in 96-well plates at 6,000 cells/well and cultured for 24h. […]. The dosage of DMSO in the solvent control group was based on the maximum dose of 0.1% used in the test group, with four duplicate wells for each concentration. Cells were treated with the drug for 72h and then added with 20µL 5 mg/mL MTT, cultured at 37°C for 4h, after added 100 µ L triple solution (10% SDS, 5% isobutanol, 12 mM hydrochloric acid), 96-well cell culture plate was placed in an incubator containing 5% CO2 at 37 ± 1°C overnight. OD value at 570nm was measured on a microplate reader.
# (§2) The inhibition rate of tumor cell growth was calculated according to the following formula: Inhibition rate(%) = [(OD570controlwell−OD570dosewell)/OD570controlwell] × 100. [formula]
# Hela cells = assay: Cytotoxicity test, MTT assay; format: cell-based; conditions: Homo sapiens, 72 h, read-out: Inhibition (%) Hel a
# Method: as §1, §2
# Huh7 cells = assay: Cytotoxicity test, MTT assay; format: cell-based
# Method: as §1, §2
# 293 cells = assay: Cytotoxicity test, MTT assay; format: cell-based; conditions: Homo sapiens, HEK293, 72 h, read-out: Inhibition (%) 293
# Method: as §1, §2
# A549 cells = assay: Cytotoxicity test, MTT assay; format: cell-based; conditions: Homo sapiens, A549, 72 h, read-out: Inhibition (%) A549
# Method: as §1, §2
# HepG2 cells = assay: Cytotoxicity test, MTT assay; format: cell-based; conditions: Homo sapiens, HepG2, 72 h, read-out: Inhibition (%) Hep G2
# Method: as §1, §2
# THP-1 cells = assay: Cytotoxicity test, MTT assay; format: cell-based; conditions: Homo sapiens, THP-1, 72 h, read-out: Inhibition (%) THP -1
# Method: as §1, §2
# MCF7 cells = assay: Cytotoxicity test, MTT assay; format: cell-based
# Method: as §1, §2
# MKN45 cells = assay: Cytotoxicity test, MTT assay; format: cell-based
# Method: as §1, §2
# [3] = Homo sapiens, HCT-116, 72 h, read-out: Inhibition (%) HCT-116
# [4] = Homo sapiens, Huh-7, 72 h, read-out: Inhibition (%) Hu h7
# [5] = Homo sapiens, MCF7, 72 h, read-out: Inhibition (%) MC F7
# [6] = Homo sapiens, MKN-45, 72 h, read-out: Inhibition (%) MKN 45
smiles,measurement,setting,value
"CC(C)c1ccc2oc3nc(N)c(C(=O)O)cc3c(=O)c2c1 [amlexanox, Amlexanox]",HBsAg concentration in culture supernatant,hepatitis B virus [1],significantly reduce HBsAg level
same,concentration of HBsAg in peripheral blood,"hepatitis B virus [2]; 50 mg/kg/day oral gavage, 9th day after infection, Figure 3","reduced HBsAg levels in a mouse model of venous hypertension, and its effect is better than that of lamivudine"
same,"dose of significant effect (inhibition of hepatitis B virus, HBsAg)","hepatitis B virus [2]; oral gavage, 9th day after infection, Figure 7",10 to 50 mg/kg
same,"concentration of HBsAg in peripheral blood, dose-response relationship","hepatitis B virus [2]; oral gavage, daily dose as in Figure 7, 9th day after infection",its ability to inhibit the hepatitis B virus in the venous hypertension mouse model is enhanced
same,HBsAg level in the blood,3TC/ETV-resistant HBV,significantly decreased
same,cytotoxicity,"HCT-116 cells; HCT-116, 100 µM, 72h",some cytotoxicity
same,inhibition at 3.125 µM,HCT-116 cells; [3],0%
same,inhibition at 6.25 µM,HCT-116 cells; [3],0%
same,inhibition at 12.5 µM,HCT-116 cells; [3],0.11%
same,inhibition at 25 µM,HCT-116 cells; [3],1.17%
same,inhibition at 50 µM,HCT-116 cells; [3],6.41%
same,inhibition at 100 µM,HCT-116 cells; [3],31.1%
same,inhibition at 3.125 µM,Hela cells,3.08%
same,inhibition at 6.25 µM,Hela cells,2.48%
same,inhibition at 12.5 µM,Hela cells,1.7%
same,inhibition at 25 µM,Hela cells,0.79%
same,inhibition at 50 µM,Hela cells,1.89%
same,inhibition at 100 µM,Hela cells,6.15%
same,inhibition at 3.125 µM,Huh7 cells; [4],0%
same,inhibition at 6.25 µM,Huh7 cells; [4],7.28%
same,inhibition at 12.5 µM,Huh7 cells; [4],15%
same,inhibition at 25 µM,Huh7 cells; [4],18.1%
same,inhibition at 50 µM,Huh7 cells; [4],26.2%
same,inhibition at 100 µM,Huh7 cells; [4],35.2%
same,cytotoxicity,"Huh7 cells; Huh7, 100 µM, 72h",some cytotoxicity
same,inhibition at 3.125 µM,293 cells,0%
same,inhibition at 6.25 µM,293 cells,0%
same,inhibition at 12.5 µM,293 cells,0%
same,inhibition at 25 µM,293 cells,0%
same,inhibition at 50 µM,293 cells,0%
same,inhibition at 100 µM,293 cells,11.3%
same,inhibition at 3.125 µM,A549 cells,3.55%
same,inhibition at 6.25 µM,A549 cells,1.31%
same,inhibition at 12.5 µM,A549 cells,0.65%
same,inhibition at 25 µM,A549 cells,0%
same,inhibition at 50 µM,A549 cells,1.08%
same,inhibition at 100 µM,A549 cells,4.54%
same,inhibition at 3.125 µM,HepG2 cells,0%
same,inhibition at 6.25 µM,HepG2 cells,0%
same,inhibition at 12.5 µM,HepG2 cells,0%
same,inhibition at 25 µM,HepG2 cells,0%
same,inhibition at 50 µM,HepG2 cells,0%
same,inhibition at 100 µM,HepG2 cells,4.8%
same,inhibition at 3.125 µM,THP-1 cells,0%
same,inhibition at 6.25 µM,THP-1 cells,0%
same,inhibition at 12.5 µM,THP-1 cells,0%
same,inhibition at 25 µM,THP-1 cells,0%
same,inhibition at 50 µM,THP-1 cells,0%
same,inhibition at 100 µM,THP-1 cells,7.44%
same,inhibition at 3.125 µM,MCF7 cells; [5],1.03%
same,inhibition at 6.25 µM,MCF7 cells; [5],0.86%
same,inhibition at 12.5 µM,MCF7 cells; [5],1.22%
same,inhibition at 25 µM,MCF7 cells; [5],3.8%
same,inhibition at 50 µM,MCF7 cells; [5],16.4%
same,inhibition at 100 µM,MCF7 cells; [5],43.5%
same,cytotoxicity,"MCF7 cells; MCF7, 100 µM, 72h",some cytotoxicity
same,inhibition at 3.125 µM,MKN45 cells; [6],0%
same,inhibition at 6.25 µM,MKN45 cells; [6],3.61%
same,inhibition at 12.5 µM,MKN45 cells; [6],4.9%
same,inhibition at 25 µM,MKN45 cells; [6],9.22%
same,inhibition at 50 µM,MKN45 cells; [6],13.9%
same,inhibition at 100 µM,MKN45 cells; [6],30.9%
same,cytotoxicity,"MKN45 cells; MKN45, 100 µM, 72h",some cytotoxicity

# Reference: patent publication EP3991729A1, “USE OF AMLEXANOX IN PREPARING ANTI-HEPATITIS VIRUS DRUG” (Marine Biomedical Research Institute Of Qingdao Co., Ltd., priority 2019, dated 2020)
